Laboratory results as given in patent US20220274954A1, “SUBSTITUTED N-PHENYL-N-AMINOUARCILS AND SALTS THEREOF AND USE THEREOF AS HERBICIDAL AGENTS” (Bayer Aktiengesellschaft, priority 2019, published 2022).

Legend:
Type in all cases: in vivo
Triticum aestivum = experiment: Post-emergence crop plant compatibility
Protocol: (§1) Seeds of monocotyledonous and dicotyledonous weeds and crop plants were placed in sandy loam in plastic or wood-fiber pots, covered with soil and cultivated in a greenhouse under controlled growth conditions. 2 to 3 weeks after sowing, the test plants were treated at the one-leaf stage. The compounds of the invention, formulated in the form of wettable powders (WP) or as emulsion concentrates (EC), were then sprayed onto the green parts of the plants as aqueous suspension or emulsion with addition of 0.5% additive at a water application rate of […] (converted). After the test plants had been kept in the greenhouse under optimum growth conditions for about 3 weeks, the activity of the preparations was rated visually in comparison to untreated controls. For example, 100% activity=the plants have died, 0% activity=like control plants.
(§2) Here, the observed effects on selected crop plants are stated in comparison to the untreated controls (values in %).

Oryza sativa = experiment: Post-emergence crop plant compatibility
Protocol: as §1, §2

Alopecurus myosuroides = experiment: Post-emergence herbicidal action
Protocol: as §1, with “plants. Tables A1 to A14 below show the effects of selected compounds of the general formula (I) according to Tables I.1 to I.34 on various harmful plants and at an application rate corresponding to 20 g/ha and less, which were obtained by the experimental procedure mentioned above.” for “plants.”

Digitaria sanguinalis = experiment: Post-emergence herbicidal action; details: 504 h, read-out: Digitaria sanguinalis (efficacy in %); for pest or weed control at 20 g/ha: application rate 20 g/ha
Protocol: as §1, with “plants. Tables A1 to A14 below show the effects of selected compounds of the general formula (I) according to Tables I.1 to I.34 on various harmful plants and at an application rate corresponding to 20 g/ha and less, which were obtained by the experimental procedure mentioned above.” for “plants.”

Setaria viridis = experiment: Post-emergence herbicidal action; details: 504 h, read-out: Setaria viridis (efficacy in %); for pest or weed control at 5 g/ha: application rate 5 g/ha; for pest or weed control at 20 g/ha: application rate 20 g/ha
Protocol: as §1, with “plants. Tables A1 to A14 below show the effects of selected compounds of the general formula (I) according to Tables I.1 to I.34 on various harmful plants and at an application rate corresponding to 20 g/ha and less, which were obtained by the experimental procedure mentioned above.” for “plants.”

Pharbitis purpurea = experiment: Post-emergence herbicidal action; details: for pest or weed control at 5 g/ha / pest or weed control at 20 g/ha: Ipomoea purpurea, 504 h, read-out: Pharbitis purpurea (efficacy in %)
Protocol: as §1, with “plants. Tables A1 to A14 below show the effects of selected compounds of the general formula (I) according to Tables I.1 to I.34 on various harmful plants and at an application rate corresponding to 20 g/ha and less, which were obtained by the experimental procedure mentioned above.” for “plants.”

Echinochloa crus-galli = experiment: Post-emergence herbicidal action; details: for pest or weed control at 5 g/ha / pest or weed control at 20 g/ha: Echinochloa crus-galli, 504 h, read-out: Echinochloa crus-galli (efficacy in %)
Protocol: as §1, with “plants. Tables A1 to A14 below show the effects of selected compounds of the general formula (I) according to Tables I.1 to I.34 on various harmful plants and at an application rate corresponding to 20 g/ha and less, which were obtained by the experimental procedure mentioned above.” for “plants.”

Veronica persica = experiment: Post-emergence herbicidal action; details: for pest or weed control at 5 g/ha / pest or weed control at 20 g/ha: Veronica persica, 504 h, read-out: Veronica persica (efficacy in %)
Protocol: as §1, with “plants. Tables A1 to A14 below show the effects of selected compounds of the general formula (I) according to Tables I.1 to I.34 on various harmful plants and at an application rate corresponding to 20 g/ha and less, which were obtained by the experimental procedure mentioned above.” for “plants.”

Polygonum convolvulus = experiment: Post-emergence herbicidal action; details: Fallopia convolvulus, 504 h, read-out: Polygonum convolvulus (efficacy in %); for pest or weed control at 20 g/ha: application rate 20 g/ha
Protocol: as §1, with “plants. Tables A1 to A14 below show the effects of selected compounds of the general formula (I) according to Tables I.1 to I.34 on various harmful plants and at an application rate corresponding to 20 g/ha and less, which were obtained by the experimental procedure mentioned above.” for “plants.”

Amaranthus retroflexus = experiment: Post-emergence herbicidal action; details: for pest or weed control at 5 g/ha / pest or weed control at 20 g/ha: Amaranthus retroflexus, 504 h, read-out: Amaranthus retroflexus (efficacy in %)
Protocol: as §1, with “plants. Tables A1 to A14 below show the effects of selected compounds of the general formula (I) according to Tables I.1 to I.34 on various harmful plants and at an application rate corresponding to 20 g/ha and less, which were obtained by the experimental procedure mentioned above.” for “plants.”

Abutilon theophrasti = experiment: Post-emergence herbicidal action; details: for pest or weed control at 5 g/ha / pest or weed control at 20 g/ha: Abutilon theophrasti, 504 h, read-out: Abutilon theophrasti (efficacy in %)
Protocol: as §1, with “plants. Tables A1 to A14 below show the effects of selected compounds of the general formula (I) according to Tables I.1 to I.34 on various harmful plants and at an application rate corresponding to 20 g/ha and less, which were obtained by the experimental procedure mentioned above.” for “plants.”

Viola tricolor = experiment: Post-emergence herbicidal action; details: for pest or weed control at 5 g/ha / pest or weed control at 20 g/ha: Viola tricolor, 504 h, read-out: Viola tricolor (efficacy in %)
Protocol: as §1, with “plants. Tables A1 to A14 below show the effects of selected compounds of the general formula (I) according to Tables I.1 to I.34 on various harmful plants and at an application rate corresponding to 20 g/ha and less, which were obtained by the experimental procedure mentioned above.” for “plants.”

Matricaria inodora = experiment: Post-emergence herbicidal action; details: for pest or weed control at 5 g/ha / pest or weed control at 20 g/ha: Tripleurospermum inodorum, 504 h, read-out: Matricaria inodora (efficacy in %); for pest or weed control at 5 g/ha: application rate 5 g/ha
Protocol: as §1, with “plants. Tables A1 to A14 below show the effects of selected compounds of the general formula (I) according to Tables I.1 to I.34 on various harmful plants and at an application rate corresponding to 20 g/ha and less, which were obtained by the experimental procedure mentioned above.” for “plants.”

Zea mays = experiment: Post-emergence crop plant compatibility; details: application rate 5 g/ha
Protocol: as §1, §2

Avena fatua = experiment: Post-emergence herbicidal action; details: application rate 20 g/ha
Protocol: as §1, with “plants. Tables A1 to A14 below show the effects of selected compounds of the general formula (I) according to Tables I.1 to I.34 on various harmful plants and at an application rate corresponding to 20 g/ha and less, which were obtained by the experimental procedure mentioned above.” for “plants.”

Triticum aestivum (efficacy in %) (Triticum aestivum; application rate 1.25 g/ha)	Oryza sativa (efficacy in %) (Oryza sativa; application rate 1.25 g/ha)	Oryza sativa (efficacy in %) (Oryza sativa; application rate 5 g/ha)	SMILES	Alopecurus myosuroides (efficacy in %) (Alopecurus myosuroides; application rate 5 g/ha)	Alopecurus myosuroides (efficacy in %) (Alopecurus myosuroides; application rate 20 g/ha)	pest or weed control at 20 g/ha (Digitaria sanguinalis)	pest or weed control at 5 g/ha (Setaria viridis)	pest or weed control at 20 g/ha (Setaria viridis)	pest or weed control at 5 g/ha (Pharbitis purpurea; application rate 5 g/ha)	pest or weed control at 20 g/ha (Pharbitis purpurea; application rate 20 g/ha)	pest or weed control at 5 g/ha (Echinochloa crus-galli; application rate 5 g/ha)	pest or weed control at 20 g/ha (Echinochloa crus-galli; application rate 20 g/ha)	pest or weed control at 5 g/ha (Veronica persica; application rate 5 g/ha)	pest or weed control at 20 g/ha (Veronica persica; application rate 20 g/ha)	pest or weed control at 5 g/ha (Amaranthus retroflexus; application rate 5 g/ha)	pest or weed control at 20 g/ha (Amaranthus retroflexus; application rate 20 g/ha)	pest or weed control at 5 g/ha (Abutilon theophrasti; application rate 5 g/ha)	pest or weed control at 20 g/ha (Abutilon theophrasti; application rate 20 g/ha)	pest or weed control at 5 g/ha (Viola tricolor; application rate 5 g/ha)	pest or weed control at 20 g/ha (Viola tricolor; application rate 20 g/ha)	further results
10%	0%	10%	CCCCOC(=O)COc1ncccc1Sc1cc(-n2c(=O)cc(C(F)(F)F)n(N)c2=O)c(F)cc1Cl [I.1-447, n-Butyl {[3-({5-[3-amino-2,6-dioxo-4-(trifluoromethyl)-3,6-dihydropyrimidin-1(2H)-yl]-2-chloro-4-fluorophenyl}sulfanyl)pyridin-2-yl]oxy}acetate]	80%	90%	100%	100%	100%	100%	100%	100%	100%	100%	100%	100%	100%	100%	100%	100%	100%	pest or weed control at 5 g/ha (Digitaria sanguinalis; application rate 5 g/ha): 100%; pest or weed control at 5 g/ha (Polygonum convolvulus; application rate 5 g/ha): 100%; pest or weed control at 20 g/ha (Polygonum convolvulus): 100%; pest or weed control at 5 g/ha (Matricaria inodora): 100%; pest or weed control at 20 g/ha (Matricaria inodora; application rate 20 g/ha): 100%
0%		0%	CCCCCOC(=O)COc1ncccc1Sc1cc(-n2c(=O)cc(C(F)(F)F)n(N)c2=O)c(F)cc1Cl [I.1-448, n-Pentyl {[3-({5-[3-amino-2,6-dioxo-4-(trifluoromethyl)-3,6-dihydropyrimidin-1(2H)-yl]-2-chloro-4-fluorophenyl}sulfanyl)pyridin-2-yl]oxy}acetate]			100%	80%	100%		100%			80%	80%	100%	100%	80%	80%	100%	100%	Triticum aestivum (efficacy in %) (Triticum aestivum; application rate 5 g/ha): 10%; Zea mays (efficacy in %) (Zea mays): 20%; pest or weed control at 20 g/ha (Polygonum convolvulus): 100%
		20%	COCCOCCOC(=O)COc1ncc(F)cc1Sc1cc(-n2c(=O)cc(C(F)(F)F)n(N)c2=O)c(F)cc1Cl [I.31-23, 2-(2-Methoxyethoxy)ethyl {[3-({5-[3-amino-2,6-dioxo-4-(trifluoromethyl)-3,6-dihydropyrimidin-1(2H)-yl]-2-chloro-4-fluorophenyl}sulfanyl)-5-fluoropyridin-2-yl]oxy}acetate]		100%				100%	100%	80%	100%	100%	100%	100%	100%	100%	100%	100%	100%	Avena fatua (efficacy in %) (Avena fatua): 80%; pest or weed control at 5 g/ha (Matricaria inodora): 100%; pest or weed control at 20 g/ha (Matricaria inodora; application rate 20 g/ha): 100%
10%	0%	10%	CCOC(=O)COc1ncc(F)cc1Sc1cc(-n2c(=O)cc(C(F)(F)F)n(N)c2=O)c(F)cc1Cl [I.31-442]	80%	90%																Triticum aestivum (efficacy in %) (Triticum aestivum; application rate 5 g/ha): 20%; Pharbitis purpurea (efficacy in %) (Pharbitis purpurea; application rate 5 g/ha): 80%; Pharbitis purpurea (efficacy in %) (Pharbitis purpurea; application rate 20 g/ha): 100%; Echinochloa crus-galli (efficacy in %) (Echinochloa crus-galli; application rate 5 g/ha): 90%; Echinochloa crus-galli (efficacy in %) (Echinochloa crus-galli; application rate 20 g/ha): 90%; Veronica persica (efficacy in %) (Veronica persica; application rate 5 g/ha): 100%; Veronica persica (efficacy in %) (Veronica persica; application rate 20 g/ha): 100%; Amaranthus retroflexus (efficacy in %) (Amaranthus retroflexus; application rate 5 g/ha): 100%; Amaranthus retroflexus (efficacy in %) (Amaranthus retroflexus; application rate 20 g/ha): 100%; Abutilon theophrasti (efficacy in %) (Abutilon theophrasti; application rate 5 g/ha): 100%; Abutilon theophrasti (efficacy in %) (Abutilon theophrasti; application rate 20 g/ha): 100%; Viola tricolor (efficacy in %) (Viola tricolor; application rate 5 g/ha): 100%; Viola tricolor (efficacy in %) (Viola tricolor; application rate 20 g/ha): 100%; Matricaria inodora (efficacy in %) (Matricaria inodora; application rate 20 g/ha): 100%
